Measurements: patent US11261429B2, “Enriched and expanded human cord blood stem cells for treatment of hematological disorders” (ICAHN SCHOOL OF MEDICINE AT MOUNT SINAI, priority 2013, dated 2022)
Values joined by “and” are separate entries in the source; they are usually repeats but may differ in a detail not shown here. Equal entries are not always repeated. “Also recorded” adds a separate entry of the source.

How the values were obtained:
class I and II HDAC = test: HDAC protein levels in CB-MNCs, Western blot, all HDACs examined; format: cell-based, human; conditions: after 2 hours of treatment
Excerpt: (§2) Cellular proteins were separated by SDS-PAGE using Novex (Invitrogen) and transferred by iBlot (Invitrogen). The membranes were probed with mAbs against individual histone deacetylases (HDAC1, HDAC2, HDAC3, HDAC4, HDAC5, HDAC6, and β-actin; Cell Signaling Technology) and developed using a chemiluminescence system with HRP-conjugated secondary antibodies (Amersham Biosciences) according to the manufacturer's instructions.

CB CD34+ cells = test: Ex vivo expansion of CB CD34+ cells with HDACIs, phenotypic analysis by flow cytometry; format: cell-based, human; conditions: VPA alone (no cytokines), SF, 7 days after 16 h priming
OCT4 = test: Pluripotency protein expression in re-isolated CD34+ cells, mAb staining and flow cytometry; format: cell-based, human; conditions: 7 days
Experimental: (§1) PCs and re-isolated, cultured CD34+ cells from control cultures and cultures containing VPA were fixed with methanol-free formaldehyde (2.8%) for 10 minutes at 37° C., briefly chilled on ice, and permeabilized with 100% ice-cold methanol. Cells were further incubated on ice for 20 minutes and blocked with incubation buffer (PBS containing 0.5% BSA) for 10 minutes and stained for SOX2 and OCT4 with an FITC-conjugated mAb or isotype controls for an hour at room temperature. Cells were also stained with a rabbit mAb for NANOG, followed by an FITC-conjugated anti-rabbit secondary antibody, and cells were washed and analyzed by flow cytometry.

SOX2 = test: as above; format: cell-based, human; conditions: 7 days
Experimental: as §1

NANOG = test: as above; format: cell-based, human; conditions: 7 days
Experimental: as §1

NSG mice [1] = format: in vivo
Experimental: As described previously, NSG mice were sublethally irradiated with 300 cGy 4 hours prior to the infusion of PCs (2×10^5), and CD34+ cells re-isolated after a week of culture under control conditions or cultures containing VPA in the presence or absence of cytokines were injected into NSG mice via the tail vein (Milhem et al., “Modification of Hematopoietic Stem Cell Fate by 5aza 2′deoxycytidine and Trichostatin A,” Blood 103:4102-4110 (2004); Araki et al., “Expansion of Human Umbilical Cord Blood SCID-Repopulating Cells Using Chromatin-Modifying Agents,” Exp. Hematol. 34:140-149 (2006); Araki et al., “Chromatin-Modifying Agents Permit Human Hematopoietic Stem Cells to Undergo Multiple Celt Divisions While Retaining Their Repopulating Potential,” Blood 109:3570-3578 (2007), which are hereby incorporated by reference in their entirety). […] BM cells from each mouse were analyzed for the presence of cells expressing human CD45-PECy7 or APC, CD34-APC or FITC, CD36-APC, CD33-PECy7, CD14-FITC, CD19-PE, CD41-FITC, CD71-FITC, and glycophorin A-PE (GPA-PE). The presence of at least 0.1% human CD45+ cells in the marrow of each recipient mouse was considered indicative of donor human hematopoietic engraftment (Milhem et al., “Modification of Hematopoietic Stem Cell Fate by 5aza 2′deoxycytidine and Trichostatin A,” Blood 103:4102-4110 (2004); Araki et al., “Expansion of Human Umbilical Cord Blood SCID-Repopulating Cells Using Chromatin-Modifying Agents,” Exp. Hematol. 34:140-149 (2006); Araki et al., “Chromatin-Modifying Agents Permit Human Hematopoietic Stem Cells to Undergo Multiple Cell Divisions While Retaining Their Repopulating Potential,” Blood 109:3570-3578 (2007); Chaurasia et al., “Chromatin-Modifying Agents Promote the Ex vivo Production of Functional Human Erythroid Progenitor Cells,” Blood 117:4632-4641 (2011), which are hereby incorporated by reference in their entirety). BM cells (2×10^6) from the primary recipient NSG mice were reinfused into sublethally irradiated secondary NSG recipient mice. Mice were sacrificed 15-16 weeks after transplantation, and BM cells were stained with mAbs and analyzed by flow cytometry for evidence of human chimerism as described above.

HDAC6 = test: HDAC protein levels in CB-MNCs, Western blot densitometry; format: cell-based, human; conditions: 24 hr, SCR 8 μM, C433 80 μM, VPA 1.25 mM
HDAC1 = test: as above; format: cell-based, human; conditions: 24 hr, SCR 8 μM, C433 80 μM, VPA 1.25 mM
HDAC4 = test: as above; format: cell-based, human; conditions: 24 hr, SCR 8 μM, C433 80 μM, VPA 1.25 mM
Excerpt: as §2

HDAC5 = test: as above; format: cell-based, human; conditions: 24 hr, SCR 8 μM, C433 80 μM, VPA 1.25 mM
Excerpt: as §2

NSG mice [2] = test: Teratoma formation assay in NSG mice; format: in vivo; conditions: 1×10^6 re-isolated CD34+ cells subcutaneously, 8 weeks
Experimental: CD34+ cells (1×10^6) re-isolated from control cultures or cultures containing VPA or a similar number of ES cells were suspended in 100 μl of PBS. These cells were mixed with an equal volume of ice-cold Matrigel and injected subcutaneously into the right hind limb of three NSG mice per group (re-isolated CD34+ cells from control cultures, VPA-treated cultures, and ES cells). The mice were observed weekly for teratoma formation and sacrificed after 8 weeks. Teratomas were dissected, fixed, sectioned, and stained with H&E and examined morphologically (O'Connor et al., “Functional Assays for Human Embryonic Stem Cell Pluripotency,” Methods Mol Biol. 690:67-80 (2011), which is hereby incorporated by reference in its entirety).

HDAC2 = test: HDAC protein levels in CB-MNCs, Western blot densitometry; format: cell-based, human; conditions: 24 hr, SCR 8 μM, C433 80 μM, VPA 1.25 mM
[3] = VPA alone (no cytokines), SF, 12-13 weeks
[4] = cells cultured with cytokines plus VPA, SF, 13-14 weeks after transplantation

CCCC(CCC)C(=O)O [VPA, valproic acid]
inhibition of HDAC expression (class I and II HDAC): did not inhibit HDAC expression
fold expansion of CD34+ cells per CB collection (CB CD34+ cells): 9.0 fold
fold expansion of CD34+CD90+ cells per CB collection (CB CD34+ cells): 486 fold
percentage of CD34+ cells expressing OCT4 (OCT4; SC cultures): 8.2 ± 1.7^A %
percentage of CD34+ cells expressing OCT4 (OCT4; SF cultures): 32.9 ± 3.8^A %
percentage of CD34+ cells expressing SOX2 (SOX2; SC cultures): 3.9 ± 1.9^A %
percentage of CD34+ cells expressing SOX2 (SOX2; SF cultures): 23.1 ± 6.5^A %
percentage of CD34+ cells expressing NANOG (NANOG; SC cultures): 5.6 ± 1.4^A %
percentage of CD34+ cells expressing NANOG (NANOG; SF cultures): 57.6 ± 6.8^A %
% Human Cell Engraftment in Primary NSG Mice, CD14 (NSG mice [1]; [3]): 2.1 ± 0.2 %
% Human Cell Engraftment in Primary NSG Mice, CD19 (NSG mice [1]; [3]): 1.9 ± 1.1%
% Human Cell Engraftment in Primary NSG Mice, CD33 (NSG mice [1]; [3]): 3.5 ± 0.6 %
% Human Cell Engraftment in Primary NSG Mice, CD34 (NSG mice [1]; [3]): 1.6 ± 0.4 %
% Human Cell Engraftment in Primary NSG Mice, CD41 (NSG mice [1]; [3]): 0.90 ± 0.6%
% Human Cell Engraftment in Primary NSG Mice, CD45 (NSG mice [1]; [3]): 12.5%±5.0% and 12.5 ± 2.2%
% Human Cell Engraftment in Primary NSG Mice, GPA (NSG mice [1]; [3]): 9.8 ± 0.8%
CD45+CD34+ cells in marrow of primary NSG mice (NSG mice [1]; [4]): 13.0%±8.7%
human CD45+ cell chimerism in marrow of primary NSG mice (NSG mice [1]; [4]): 32.2%±11.3% and 32.3±10.2%
donor-derived CD34+ cells coexpressing CD184 in marrow (NSG mice [1]; cells cultured with cytokines plus VPA, SF, primary NSG mice): 9.9%±9.6%
blood cancer or teratomas in primary or secondary recipients (NSG mice [1]; mouse, in vivo): None of the primary or secondary recipients of marrow cells receiving VPA-treated grafts developed evidence of blood cancer or developed teratomas
HDAC6 expression relative to b-ACTIN (%) (HDAC6): 54.2 ± 7.9%
HDAC1 expression relative to b-ACTIN (%) (HDAC1): 25.48 ± 7.78%
HDAC4 expression relative to b-ACTIN (%) (HDAC4): 30.5 ± 9.3%
HDAC5 expression relative to b-ACTIN (%) (HDAC5): 21.4 ± 10.7%
teratoma formation (NSG mice [2]): did not form teratomas; also recorded: neither control nor VPA treated CD34+ cells formed teratomas
HDAC2 expression relative to b-ACTIN (%) (HDAC2): 45.8 ± 25.2%
